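A five-concentration, 48-hour dose response in 96-well plates underlies each endpoint, interpolated linearly between surrounding concentrations. Here, GI50 denotes the concentration required for 50% inhibition of growth.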 Active and inactive are the calls of the source. Rule as the data show it: active = GI50 up to about 1.1 µM and inactive = higher.
How the values were obtained:
Assay in all cases: NCI tumour cell line growth inhibition, 48 h
[1] = test system: HCC 2998
[2] = test system: HCT-116
[3] = test system: HCT-15
[4] = test system: HL-60
[5] = test system: HOP-62
[6] = test system: KM12
[7] = test system: MOLT-4
[8] = test system: NCI-H226
[9] = test system: NCI/ADR-RES
[10] = test system: OVCAR-3
[11] = test system: OVCAR-4
[12] = test system: OVCAR-5
[13] = test system: OVCAR-8
[14] = test system: PC-3
[15] = test system: RPMI-8226
[16] = test system: RXF 393
[17] = test system: SK-MEL-28
[18] = test system: SNB-19
[19] = test system: SNB-75
[20] = test system: UACC-257

Structure (SMILES) | GI50 [1] | GI50 [2] | GI50 [3] [µM] | GI50 [4] | GI50 [5] | GI50 [6] | GI50 [7] | GI50 [8] | GI50 [9] | GI50 [10] | GI50 [11] | GI50 [12] | GI50 [13] | GI50 [14] | GI50 [15] | GI50 [16] | GI50 [17] | GI50 [18] | GI50 [19] | GI50 [20]
O=C(/C=C/c1cccc(Br)c1)c1ccc(Cl)cc1 | 18.8 µM (inactive) | 5.35 µM (inactive) | 14.8 | 14.3 µM (inactive) | 19.2 µM (inactive) | 11.8 µM (inactive) | 5.93 µM (inactive) | 18.8 µM (inactive) | 21.7 µM (inactive) | 16.7 µM (inactive) | 4.36 µM (inactive) | 15.6 µM (inactive) | 17 µM (inactive) | 15 µM (inactive) | 2.08 µM (inactive) | 17.8 µM (inactive) | 15.1 µM (inactive) | 16.3 µM (inactive) | 13.6 µM (inactive) | 17.1 µM (inactive)
CC1CCCC(C(=O)CC2CC(=O)NC(=O)C2)C1=O (stereo not given) | > 100 µM (inactive) | > 100 µM (inactive) | > 100 | > 100 µM (inactive) | > 100 µM (inactive) | > 100 µM (inactive) | > 100 µM (inactive) | > 100 µM (inactive) | > 100 µM (inactive) | > 100 µM (inactive) | > 100 µM (inactive) | > 100 µM (inactive) | > 100 µM (inactive) | > 100 µM (inactive) | > 100 µM (inactive) | > 100 µM (inactive) | > 100 µM (inactive) | > 100 µM (inactive) | > 100 µM (inactive) | > 100 µM (inactive)
O=C(Nc1ccc(Cl)cc1)NS(=O)(=O)c1coc2ccccc2c1=O | > 10 µM (inactive) | > 10 µM (inactive) | > 10 | > 10 µM (inactive) | > 10 µM (inactive) | > 10 µM (inactive) | > 10 µM (inactive) | > 10 µM (inactive) | > 10 µM (inactive) | > 10 µM (inactive) | > 10 µM (inactive) | > 10 µM (inactive) | > 10 µM (inactive) | > 10 µM (inactive) | > 10 µM (inactive) | > 10 µM (inactive) | > 10 µM (inactive) | > 10 µM (inactive) | > 10 µM (inactive) | > 10 µM (inactive)
N#C/C(=C\N1CCNC1=S)C(=O)c1ccc2ccccc2c1 | > 100 µM (inactive) | > 100 µM (inactive) | > 100 | 7.06 µM (inactive) | > 100 µM (inactive) | > 100 µM (inactive) | 37.4 µM (inactive) | > 100 µM (inactive) | > 100 µM (inactive) | > 100 µM (inactive) | 74 µM (inactive) | > 100 µM (inactive) | > 100 µM (inactive) | 97.1 µM (inactive) | 89.7 µM (inactive) | > 100 µM (inactive) | > 100 µM (inactive) | > 100 µM (inactive) | > 100 µM (inactive) | > 100 µM (inactive)
O=C(N/N=C\C=C\c1ccc([N+](=O)[O-])o1)C(=O)N/N=C\C=C\c1ccc([N+](=O)[O-])o1 | > 100 µM (inactive) | 25.1 µM (inactive) | 81.7 | 20 µM (inactive) | 82.2 µM (inactive) | > 100 µM (inactive) | 24.1 µM (inactive) | > 100 µM (inactive) | 26 µM (inactive) | 24.1 µM (inactive) | 34.9 µM (inactive) | > 100 µM (inactive) | 23.2 µM (inactive) | > 100 µM (inactive) | 28.4 µM (inactive) | > 100 µM (inactive) | > 100 µM (inactive) | > 100 µM (inactive) | > 100 µM (inactive) | > 100 µM (inactive)
O=C(/N=S(/NC(=O)c1ccccc1)C(Cl)(Cl)Cl)c1ccccc1 (stereo not given) | 34.8 µM (inactive) | 15.5 µM (inactive) | 8.59 | 4.89 µM (inactive) | 19.5 µM (inactive) | > 65 µM (inactive) | 6.97 µM (inactive) | 25.6 µM (inactive) | 15.5 µM (inactive) | 31.2 µM (inactive) | 17.4 µM (inactive) | 22.9 µM (inactive) | 15.5 µM (inactive) | 46.2 µM (inactive) | 41.2 µM (inactive) | 12.1 µM (inactive) | 25.3 µM (inactive) | 51.2 µM (inactive) | 40.6 µM (inactive) | 35.2 µM (inactive)

Source: ChEMBL document CHEMBL1201862, “PubChem BioAssay data set” (2004)
